# “Also recorded” adds a separate entry of the source.
# How the values were obtained:
# Type in all cases: cell-based
# Alternaria alternata [1] = test: Cylinder Agar Plate Assay (Example 3)
# Description: Cetyl pyridinium chloride (CPC) and benzalkonium chloride (BKC) were both independently tested to determine their efficacy of inhibiting Alternaria alternata, a fungus typically associated with non-invasive fungus-induced rhinosinusitis. An in vitro test of the efficacy of BKC and CPC in combination was also completed against Alternaria alternata.
# Five concentrations of BKC and CPC were independently tested against Alternaria alternata in a cylinder Agar Plate Assay. The CPC concentrations were 0.005%, 0.01%, 0.05%, 0.25% and 1.0%, whereas the BKC concentrations were 0.00025%, 0.001%, 0.005%, 0.025%, and 0.1%. These concentrations were chosen to include the concentrations in the SINOFRESH product as well as two concentrations above and two concentrations below the SINOFRESH product.
# Five concentrations of a combination of BKC and CPC were independently tested against Alternaria alternata in a cylinder Agar Plate Assay. The concentrations were as follows:
# Five concentrations of the SINOFRESH product were also subjected to the same Agar Plate Assay, with the same concentrations of BKC and CPC.
# Alternaria alternata [2] = test: Antifungal Efficacy, sample diluted and plated, plates read for mold growth (Example 1); conditions: 100% sample; diluted and plated at 1, 4, 24 and 48 hours of incubation; plate read on days 2, 3 and 5
# Procedure: SINOFRESH Essential Nasal Cleansing Formula, which included cetylpyridinium chloride (CPC) at 0.02% and benzalkonium chloride (BKC) at 0.005%, was tested for its ability to inhibit Alternaria alternata, a fungus typically associated with non-invasive fungus-induced rhinosinusitis. Minimum Inhibitory Concentration (MIC), Antifungal Efficacy, and Selective Agar Streak were all determined, and met the pre-defined acceptance criteria that the negative control test tube had to remain free of growth throughout the study, while the positive control tube had to retain growth throughout the study. No deviations were noted during the study.
# A 100% sample of 0.02% cetylpyridinium chloride was tested for antifungal efficacy. At 1, 4, 24, and 48 hours of incubation, the sample was diluted and plated. On days 2, 3, and 5, the plate was read.
# Alternaria alternata [3] = test: Inhibition of Alternaria alternata in RPMI-1640 broth tubes, visual growth rating 0-4 (Example 2); conditions: spiked, 48 hours at 30-35°
# Procedure: Amphotericin-B and Parabens (methylparaben and propylparaben) were tested for their ability to inhibit the fungus Alternaria alternata. Samples were stored at 2-8° C. prior to use.
# Prepared an inoculating culture of Alternaria alternata by placing an ATCC pellet in 5 mL phosphate buffer, after dissolution spread the broth and dissolved pellet over the surface of a PDA plate using a FIG. 8 motion. The inoculum plate was incubated for five days at 20-25° C.
# After the five day incubation period, 3 ml of modified phosphate buffer was used to wet the surface growth of the PDA plate. The surface of the culture was washed with the buffer using a sterile spreader stick. After washing, a 10 mL pipette was used to remove as much of the wash as is possible without picking up any agar. The wash was pipetted into a sterile culture tube.
# Serial dilutions of the wash modified phosphate buffer were performed using modified phosphate buffer to determine the dilution that yields a mold population of 10^6 per mL. The dilutions were done by pipetting 1 mL of each dilution of the wash into molten potato dextrose agar plates pH 3.5 in quadruplicate, incubating at 20-25° C. for five days, assuring that there are not mixed cultures, and then counting the colonies on the plates. The correct dilution yielded counts of 30-300 CFU's. To maintain the correct dilution for inoculation, all dilutions were refrigerated at 2-8° C. until needed. […] A 0.1 mL aliquot of this dilution was used to inoculate the inhibition culture tubes.
# Twelve sterile test tubes were prepared with 9 mL Modified Synthetic Medium RPMI-1640 broth that has been tempered in a 45-50° C. water bath and labeled as follows: Amphotericin B neg. control, Ampho-B 100 spike, Ampho-B 2 spike, Ampho-B 1 spike, Ampho-B 0.5 spike, Paraben neg. control, Paraben 400/100 spike, Paraben 300/75 spike, Paraben 200/50 spike, Paraben 100/25 spike, Pos. control, Neg control.
# An Amphotericin-B suspension was prepared by placing in suspension 10 mg of Amphotericin-B in 10 mL in modified phosphate buffer. The sample was mixed by vortex for 30 seconds. […]
# Control samples, Amphotericin B and Parabens dilutions were all prepared from the stock solutions. To all tube labeled “spike” and positive control, 0.1 mL of the inoculated buffer was added and determined to yield […]. […] The growth in each tube was recorded visually, on a 0-4 scale: 0: no growth observed, 1: slight growth or ˜25% of the growth control, 2: prominent growth or ˜50% of the growth control, 3: slight reduction in growth or ˜75% of the growth control, and 4: no reduction in growth or 100% of the growth control. […]
compound,measurement,setting,value
benzalkonium chloride [BKC],effect on the growth of Alternaria alternata,Alternaria alternata [1]; BKC alone at 0.005% (concentration in the SINOFRESH product),little to no effect; also recorded: essentially inactive
same,effect on the growth of Alternaria alternata,Alternaria alternata [1]; BKC alone at concentrations of about 0.025% or above,some effect
"CCCCCCCCCCCCCCCC[n+]1ccccc1 [CPC, cetylpyridinium chloride]",mold growth on plate,Alternaria alternata [2],did not exhibit any mold growth
same,effect on the growth of Alternaria alternata,"Alternaria alternata [1]; CPC alone at 0.005%, 0.01%, 0.05%, 0.25% and 1.0%",most observable effect
C[C@@H]1[C@H](O)[C@@H](C)/C=C/C=C/C=C/C=C/C=C/C=C/C=C/[C@H](O[C@@H]2O[C@H](C)[C@@H](O)[C@H](N)[C@@H]2O)C[C@@H]2O[C@](O)(C[C@@H](O)C[C@@H](O)[C@H](O)CC[C@@H](O)C[C@@H](O)CC(=O)O[C@H]1C)C[C@H](O)[C@H]2C(=O)O [Amphotericin B],"Rating (growth, 0-4 scale)",Alternaria alternata [3]; 0.5 μg/mL,2 (prominent growth or ˜50% of the growth control)
same,"Rating (growth, 0-4 scale)",Alternaria alternata [3]; 1.0 μg/mL,2 (prominent growth or ˜50% of the growth control)
same,"Rating (growth, 0-4 scale)",Alternaria alternata [3]; 2.0 μg/mL,1 (slight growth or ˜25% of the growth control)
same,"Rating (growth, 0-4 scale)",Alternaria alternata [3]; 100 μg/mL,1 (slight growth or ˜25% of the growth control)
